Data set [1] addresses T1, ATP-dependent translocase ABCB1 (Homo sapiens, UniProt P08183). Briefly: TP_TRANSPORTER: increase in Rhodamine 123 intracellular accumulation (R123: 10 uM, Mefloquine: 10 uM) in K562/DOX cells. The data set is classed as functional, cell-based. The conditions noted are these: k562/adr.
The target of data set [2] is T1, ATP-dependent translocase ABCB1. Briefly: TP_TRANSPORTER: inhibition of Azidopine photoaffinity labelling (Azidopine: 0.1 uM, Mefloquine: 10 uM) in membranes from K562/DOX cells. The data set is classed as functional, cell membranes, Membrane. Particulars: k562/adr.
Data set [3] shares this target. Kind of data set: TP_TRANSPORTER: intracellular accumulation in K562 and K562/DXR cells. It counts as functional, cell-based.

SMILES strings stand for the structures.

This passage reports Activity results from ChEMBL document CHEMBL2073901, “Enhancement of doxorubicin activity in multidrug-resistant cells by mefloquine” (Methods Find Exp Clin Pharmacol, 2000).

T1 sequence (P08183 whole entry): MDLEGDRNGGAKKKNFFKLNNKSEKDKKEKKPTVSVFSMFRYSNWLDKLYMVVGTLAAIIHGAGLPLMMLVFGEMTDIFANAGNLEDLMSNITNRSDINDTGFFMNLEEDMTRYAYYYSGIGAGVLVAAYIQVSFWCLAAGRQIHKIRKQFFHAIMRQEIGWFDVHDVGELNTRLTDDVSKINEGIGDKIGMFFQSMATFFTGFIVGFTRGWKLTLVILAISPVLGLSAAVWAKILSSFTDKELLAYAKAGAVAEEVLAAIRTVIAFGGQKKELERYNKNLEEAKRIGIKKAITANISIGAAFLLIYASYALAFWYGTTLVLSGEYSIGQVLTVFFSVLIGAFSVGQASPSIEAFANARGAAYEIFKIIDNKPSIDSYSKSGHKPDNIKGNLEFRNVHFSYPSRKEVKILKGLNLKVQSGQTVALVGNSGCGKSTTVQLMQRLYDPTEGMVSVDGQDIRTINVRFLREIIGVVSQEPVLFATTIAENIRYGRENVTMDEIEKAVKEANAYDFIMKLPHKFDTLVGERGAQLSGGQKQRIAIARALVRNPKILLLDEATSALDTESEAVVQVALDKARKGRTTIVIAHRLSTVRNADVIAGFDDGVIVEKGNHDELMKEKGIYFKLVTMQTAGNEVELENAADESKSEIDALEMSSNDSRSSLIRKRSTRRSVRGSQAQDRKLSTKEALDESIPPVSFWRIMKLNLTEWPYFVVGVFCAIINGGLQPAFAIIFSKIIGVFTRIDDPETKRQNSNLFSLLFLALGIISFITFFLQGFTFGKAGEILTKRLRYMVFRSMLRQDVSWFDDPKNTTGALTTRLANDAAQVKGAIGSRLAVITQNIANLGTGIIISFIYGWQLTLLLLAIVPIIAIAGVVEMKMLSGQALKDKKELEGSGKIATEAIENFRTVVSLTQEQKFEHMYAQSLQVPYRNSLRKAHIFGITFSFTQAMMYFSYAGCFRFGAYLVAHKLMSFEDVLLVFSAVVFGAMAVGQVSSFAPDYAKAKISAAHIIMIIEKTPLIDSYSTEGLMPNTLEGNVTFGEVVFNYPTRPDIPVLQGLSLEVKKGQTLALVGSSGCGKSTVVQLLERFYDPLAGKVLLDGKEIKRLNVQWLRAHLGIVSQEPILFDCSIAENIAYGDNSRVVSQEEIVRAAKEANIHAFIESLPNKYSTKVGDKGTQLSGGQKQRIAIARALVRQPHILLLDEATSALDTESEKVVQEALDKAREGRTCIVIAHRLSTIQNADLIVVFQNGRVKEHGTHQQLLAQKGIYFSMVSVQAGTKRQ

For `OC(c1cc(C(F)(F)F)nc2c(C(F)(F)F)cccc12)C1CCCCN1` (stereo not drawn) [MEFLOQUINE], the Activity result in data set [1] and in data set [2] was “inhibitor [+]” throughout.
Turning to `COC(=O)c1ccccc1-c1c2ccc(=N)cc-2oc2cc(N)ccc12.Cl` [RHODAMINE123], in data set [3], the Activity result was “substrate [+]”.
